Some test systems named below: SF-539 CNS; RPMI-8226 leukemia; SK-MEL-28 melanoma; TK-10 renal; HL-60(TB) leukemia; SF-295 CNS; HCT-116 colon; UACC-62 melanoma; SNB-19 CNS; UACC-257 melanoma.
Holding throughout (assay): NCI anticancer screen, dose series, 48 h

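Assay format: 96-well plates, 48-hour exposure. TGI marks complete inhibition of growth.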 Bounds are passed on as bounds.

In the case of `CSc1ncnc2c1ncn2C1CC(Oc2ccc(C)cc2)C(COc2ccc(C)cc2)O1` (centres undefined), the TGI in the test with SF-539 CNS, in the test with RPMI-8226 leukemia, with SK-MEL-28 melanoma, in the test with TK-10 renal, in the test with HL-60(TB) leukemia and in the test with SF-295 CNS was above 100 µM each time. Besides, the TGI with HCT-116 colon, in the test on UACC-62 melanoma, with SNB-19 CNS and in the test on UACC-257 melanoma was above 100 µM each time.
Take `O=c1cc(-c2ccc(F)cc2)[nH]c2ncc(Cl)cc12`: the TGI was 97.8 µM with SF-539 CNS; 62.4 µM in the test on RPMI-8226 leukemia; above 100 µM in the test on SK-MEL-28 melanoma; above 100 µM with TK-10 renal; 15.3 µM in the test with HL-60(TB) leukemia; 78.5 µM with SF-295 CNS. For the same compound, the TGI in the test on HCT-116 colon is above 61.3 µM; in the test on UACC-62 melanoma it was above 100 µM; with SNB-19 CNS, above 100 µM; in the test on UACC-257 melanoma, above 100 µM.
As to `COC(CNC(=O)C(C)NC(=O)CCc1ccccc1)OC` (centres undefined), the TGI with SF-539 CNS, in the test on RPMI-8226 leukemia, in the test with SK-MEL-28 melanoma, with TK-10 renal, in the test on HL-60(TB) leukemia and in the test with SF-295 CNS was above 100 µM throughout. The TGI in the test with HCT-116 colon, in the test on UACC-62 melanoma, in the test with SNB-19 CNS and with UACC-257 melanoma was above 100 µM each time.
Turning to `COc1cc(/C=C2\C(=O)N(c3ccccc3)C(c3ccccc3)S2(=O)=O)cc(OC)c1OC` (centres undefined), the TGI with SF-539 CNS was above 100 µM; in the test on RPMI-8226 leukemia it was 92.3 µM; in the test with SK-MEL-28 melanoma, above 100 µM; with TK-10 renal, above 100 µM; in the test with HL-60(TB) leukemia, above 100 µM; in the test on SF-295 CNS, above 100 µM. The TGI in the test with HCT-116 colon, in the test on UACC-62 melanoma, in the test on SNB-19 CNS and with UACC-257 melanoma was above 100 µM in each case.
In the case of `Cc1c(S(=O)(=O)/N=C(\NO)Nc2ccc(Cl)c(Cl)c2)sc2ccc(Cl)cc12`, the TGI is 45.1 µM in the test with SF-539 CNS; above 100 µM with RPMI-8226 leukemia; 42.5 µM in the test on SK-MEL-28 melanoma; 34.4 µM in the test on TK-10 renal; 77.3 µM in the test with HL-60(TB) leukemia; 33.6 µM in the test on SF-295 CNS. Further, the TGI was 37 µM with HCT-116 colon, 37.2 µM in the test with UACC-62 melanoma, 45.1 µM in the test on SNB-19 CNS and 37.6 µM with UACC-257 melanoma.
Consider `CC(C)(C)OC(=O)NC(Cc1ccc(OCc2ccccc2)cn1)C(=O)N1CCCCC1` (centres undefined), for which the TGI in the test on SF-539 CNS was above 100 µM; in the test on RPMI-8226 leukemia, 52.7 µM; with SK-MEL-28 melanoma, above 100 µM; with TK-10 renal, above 100 µM; in the test with HL-60(TB) leukemia it was 82.1 µM; in the test on SF-295 CNS it was above 100 µM. The TGI in the test on HCT-116 colon is above 100 µM; in the test on UACC-62 melanoma, above 100 µM; with SNB-19 CNS, above 100 µM; in the test on UACC-257 melanoma, 47.3 µM.
`O=C(c1ccc(N=Cc2ccccc2O)cc1)c1ccc(N=Cc2ccccc2O)cc1`: the TGI in the test on SF-539 CNS, in the test on RPMI-8226 leukemia, in the test with SK-MEL-28 melanoma, with TK-10 renal, in the test on HL-60(TB) leukemia and with SF-295 CNS was above 100 µM each time. The TGI in the test on HCT-116 colon, in the test on UACC-62 melanoma and with SNB-19 CNS was above 100 µM throughout.
As for `C=CC(CCc1ccc(C(=O)OCC)cc1)c1c(N)nc(N)[nH]c1=O` (centres undefined), the TGI in the test on SF-539 CNS, in the test with RPMI-8226 leukemia, in the test with SK-MEL-28 melanoma, in the test on TK-10 renal, with HL-60(TB) leukemia and in the test with SF-295 CNS was above 100 µM throughout. The TGI with HCT-116 colon, with UACC-62 melanoma, in the test with SNB-19 CNS and in the test with UACC-257 melanoma was above 100 µM throughout.
For `c1ccc2c(c1)ccn2CCc1c[nH]c2ccccc12`, the TGI in the test with SF-539 CNS, in the test with RPMI-8226 leukemia, with SK-MEL-28 melanoma, with TK-10 renal, with HL-60(TB) leukemia and in the test with SF-295 CNS was above 10 µM throughout. For the same compound, the TGI with HCT-116 colon, in the test with UACC-62 melanoma, in the test with SNB-19 CNS and in the test on UACC-257 melanoma was above 10 µM each time.
In the case of `O=C1C=C(C2=CC(=O)C(=O)c3ccccc32)c2ccccc2C1=O`, the TGI in the test with SF-539 CNS is 82.4 µM; in the test with RPMI-8226 leukemia it was 46.2 µM; in the test on SK-MEL-28 melanoma, above 100 µM; with TK-10 renal it was 75.4 µM; in the test with HL-60(TB) leukemia, above 100 µM; with SF-295 CNS it was 66.5 µM. The TGI in the test with HCT-116 colon is 50.1 µM; in the test with UACC-62 melanoma, above 100 µM; in the test with SNB-19 CNS, 53.2 µM; in the test with UACC-257 melanoma it was above 100 µM.
For `CC(=O)OC(/C=C/c1ccccc1)=C(OC(C)C)/C1=C(\c2ccccc2)SCCCSC1=O`, the TGI in the test with SF-539 CNS, in the test on RPMI-8226 leukemia, in the test with SK-MEL-28 melanoma, in the test on TK-10 renal, with HL-60(TB) leukemia and in the test on SF-295 CNS was above 100 µM each time. Further, the TGI with HCT-116 colon, in the test with UACC-62 melanoma, in the test on SNB-19 CNS and in the test on UACC-257 melanoma was above 100 µM throughout.
As to `Nc1cc2[nH]c(=O)c(=O)[nH]c2cc1N`, the TGI with SF-539 CNS, with RPMI-8226 leukemia, in the test on SK-MEL-28 melanoma, with TK-10 renal, with HL-60(TB) leukemia and with SF-295 CNS was above 100 µM in each case. In addition, the TGI in the test on HCT-116 colon, with UACC-62 melanoma, with SNB-19 CNS and in the test with UACC-257 melanoma was above 100 µM throughout.
With `CON(C)C(=O)CNC(=O)OCC1c2ccccc2-c2ccccc21`, the TGI with SF-539 CNS is above 100 µM; with RPMI-8226 leukemia, 91.7 µM; in the test on SK-MEL-28 melanoma, above 100 µM; in the test with TK-10 renal, above 100 µM; with HL-60(TB) leukemia, 90.9 µM; with SF-295 CNS, above 100 µM. The TGI in the test with HCT-116 colon, in the test on UACC-62 melanoma, with SNB-19 CNS and in the test on UACC-257 melanoma was above 100 µM each time.

(Values after PubChem BioAssay (NCI).)
